Data on 3 molecules can be found in ChEMBL document CHEMBL1139775, “A novel ketolide class: Synthesis and antibacterial activity of a lead compound” (2007).

Assay type in all cases: functional
The test system of test [1] is Staphylococcus aureus. Nature of the test: Antibacterial activity against erythromycin-sensitive Staphylococcus aureus ATCC 13709.
Test [2] deals with Staphylococcus aureus. As to the kind of experiment: Antibacterial activity against […] MLSc.
Test [3] has as its system Streptococcus pneumoniae. Nature of the test: Antibacterial activity against erythromycin-sensitive Streptococcus pneumoniae.
The test system of test [4] is Streptococcus pneumoniae. As to the kind of experiment: Antibacterial activity against Streptococcus pneumoniae 4636 MLSc.
Test [5] relates to Streptococcus pneumoniae. Nature of the test: Antibacterial activity against Streptococcus pneumoniae CI137 M.
Test [6] deals with Streptococcus pyogenes. Nature of the test: Antibacterial activity against erythromycin-sensitive Streptococcus pyogenes 3565.
For test [7], the system named is Streptococcus pyogenes. Nature of the test: Antibacterial activity against Streptococcus pyogenes MLSi.
For test [8], the system named is Streptococcus pyogenes. Nature of the test: Antibacterial activity against Streptococcus pyogenes M.
Another test concerns Moraxella catarrhalis. Nature of the test: Antibacterial activity against Moraxella catarrhalis ATCC 23246.
The test system of another test is Haemophilus influenzae. Nature of the test: Antibacterial activity against Haemophilus influenzae ATCC 49247.
The test system of a further test is Escherichia coli. Nature of the test: Antibacterial activity against Escherichia coli ATCC 25922.

Each structure is given as a SMILES string. Values after ≈ are worked out from the molar mass of the structure shown.

As to `CC[C@@H]1OC(=O)[C@H](C)C(=O)[C@H](C)[C@@H](O[C@@H]2O[C@H](C)C[C@H](N(C)C)[C@H]2O)[C@@](C)(OC)C[C@@H](C)C(=O)[C@H](C)[C@H]2CC(=O)O[C@]12C`, the MIC is 0.5 µg/mL (≈ 0.817 µM) against Staphylococcus aureus [1]; greater than 128 µg/mL in the test with Staphylococcus aureus [2]; no more than 0.06 µg/mL against Streptococcus pneumoniae [3]; greater than 128 µg/mL in the test with Streptococcus pneumoniae [4]; 0.12 µg/mL (≈ 0.196 µM) in the test with Streptococcus pneumoniae [5]; 0.12 µg/mL (≈ 0.196 µM) with Streptococcus pyogenes [6]. The MIC in the test on Streptococcus pyogenes [7] came to 0.5 µg/mL (≈ 0.817 µM); with Streptococcus pyogenes [8] it was 0.12 µg/mL (≈ 0.196 µM); against Moraxella catarrhalis, 0.5 µg/mL (≈ 0.817 µM); with Haemophilus influenzae it was 16 µg/mL (≈ 26.2 µM); in the test with Escherichia coli, 128 µg/mL (≈ 209 µM).

For `CC[C@@H]1OC(=O)[C@H](C)C(=O)[C@H](C)[C@@H](O[C@@H]2O[C@H](C)C[C@H](N(C)C)[C@H]2O)[C@@](C)(OC)C[C@@H](C)C(=O)[C@H](C)[C@H]2NC(=O)O[C@]12C`, the MIC with Staphylococcus aureus [1] is 0.25 µg/mL (≈ 0.408 µM); against Staphylococcus aureus [2], greater than 128 µg/mL; in the test with Streptococcus pneumoniae [3] it was 0.06 µg/mL (≈ 0.0979 µM); in the test on Streptococcus pneumoniae [4], greater than 128 µg/mL; against Streptococcus pneumoniae [5], 0.25 µg/mL (≈ 0.408 µM); against Streptococcus pyogenes [6], 0.06 µg/mL (≈ 0.0979 µM). In addition, the MIC in the test with Streptococcus pyogenes [7] worked out at 0.06 µg/mL (≈ 0.0979 µM); against Streptococcus pyogenes [8] it was 0.25 µg/mL (≈ 0.408 µM); in the test on Moraxella catarrhalis it was 0.12 µg/mL (≈ 0.196 µM); against Haemophilus influenzae, 16 µg/mL (≈ 26.1 µM); in the test on Escherichia coli, 64 µg/mL (≈ 104 µM).

For `CC[C@H]1OC(=O)[C@H](C)[C@@H](O[C@H]2C[C@@](C)(OC)[C@@H](O)[C@H](C)O2)[C@H](C)[C@@H](O[C@@H]2O[C@H](C)C[C@H](N(C)C)[C@H]2O)[C@](C)(OC)C[C@@H](C)C(=O)[C@H](C)[C@@H](O)[C@]1(C)O` [CLARITHROMYCIN], the MIC against Staphylococcus aureus [1] is 0.25 µg/mL (≈ 0.334 µM); against Staphylococcus aureus [2], greater than 32 µg/mL; against Streptococcus pneumoniae [3], no more than 0.06 µg/mL; in the test with Streptococcus pneumoniae [4], greater than 128 µg/mL; against Streptococcus pneumoniae [5] it was 8 µg/mL (≈ 10.7 µM); against Streptococcus pyogenes [6], no more than 0.06 µg/mL. Also, the MIC in the test with Streptococcus pyogenes [7] was 2 µg/mL (≈ 2.67 µM); with Streptococcus pyogenes [8], 2 µg/mL (≈ 2.67 µM); with Moraxella catarrhalis, no more than 0.25 µg/mL; in the test on Haemophilus influenzae, 8 µg/mL (≈ 10.7 µM); against Escherichia coli, 64 µg/mL (≈ 85.6 µM).
